This is an account of results in US12180226B2, “Spirotricycle RIPK1 inhibitors and methods of uses thereof” (Merck Sharp & Dohme LLC, priority 2021, dated 2024).

Structures can show the parent of a compound that is named as a salt.

The target of the experiment is RIPK1 (recombinant GST-RIPK1 kinase domain, residues 1-327) (Homo sapiens (Human), UniProt Q13546). Kind of experiment: RIPK1-ADP-Glo Enzymatic Assay. The experiment is classed as biochemical. The settings on record: ADP-Glo; 25 nM GST-RIPK1, 300 μM ATP; assay lower limit ~25 nM; read-out: RIPK1 V0 Ec50. An outline of the steps: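 ADP-Glo luminescence read after 150 min kinase reaction (300 μM ATP, 3 μM dephosphorylated MBP) using 25 nM Sf21-made GST-kinase domain (1-327), preincubated 30 min with compound. HEPES pH 7.3, 1% DMSO; ten-point 1:3 series from 100000 nM, EC50 via four-parameter sigmoidal regression.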
RIPK1 (recombinant GST-RIPK1 kinase domain, residues 1-327), sequence (Q13546 1-327): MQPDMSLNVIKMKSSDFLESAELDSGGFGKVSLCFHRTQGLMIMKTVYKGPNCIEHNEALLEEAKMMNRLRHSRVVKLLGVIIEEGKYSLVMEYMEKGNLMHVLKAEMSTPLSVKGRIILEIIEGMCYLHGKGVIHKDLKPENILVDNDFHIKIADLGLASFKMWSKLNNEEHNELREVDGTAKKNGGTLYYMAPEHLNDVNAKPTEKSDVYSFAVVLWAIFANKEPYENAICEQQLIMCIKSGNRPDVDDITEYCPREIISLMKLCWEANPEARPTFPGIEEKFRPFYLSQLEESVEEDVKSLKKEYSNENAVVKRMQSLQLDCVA
(ADP-Glo first removes unused ATP, then detects ADP through luciferase.)
Broadly, the EC50 is the concentration needed to bring the measured effect to its halfway point. As to `O=C1N2[C@@H](CC[C@H]2c2ccccc2F)OC12CN(S(=O)(=O)c1ccccc1)C2` [Example 8.5, (5′S,7a′R)-5′-(2-fluorophenyl)-1-(phenylsulfonyl)tetra-hydro-3′H-spiro[azetidine-3,2′-pyrrolo[2,1-b]oxazol]-3′-one], the 50% effective concentration (EC50) came out at 429 nM.

Take `N#Cc1ccc(N2CCC3(CC2)O[C@@H]2CC[C@@H](c4cc(F)cc(F)c4)N2C3=O)cc1-n1ccnn1` [Example 4.70, 4-[(5′S,7a′R)-5′-(3,5-difluorophenyl)-3′-oxotetrahydro-1H,3′H-spiro[piperidine-4,2′-pyrrolo[2,1-b] [1,3]oxazol]-1-yl]-2-(1H-1,2,3-triazol-1-yl)benzonitrile]: the EC50 is 54.3 nM.

Take `O=C(c1ccn(C2CC2)n1)N1CCC2(CC1)O[C@@H]1CC[C@@H](c3cc(F)cc(F)c3)N1C2=O` [Example 5.52, (5′S,7a′R)-1-(1-cycloprop-yl-1H-pyrazole-3-carbon-yl)-5′-(3,5-difluorophen-yl)tetrahydro-3′H-spiro [piperidine-4,2′-pyrrolo-[2,1-b]oxazol]-3′-one]: the EC50 amounted to 88.8 nM.

`O=C1N2[C@@H](CC[C@H]2c2ccccc2)OC12CCN(c1cc(-c3ccco3)ccn1)CC2` [Example 4.169, (5′S,7a′R)-1-[4-(furan-2-yl)pyridin-2-yl]-5′-phenyltetrahydro-3′H-spiro[piperidine-4,2′-pyrrolo[2,1-b] [1,3]oxazol]-3′-one]: the half-maximal effective concentration (EC50) was found to be 26.4 nM.

For `O=C1N2[C@@H](CC[C@H]2c2ccccc2F)OC12CN(c1ccnc(-c3cnn(C(F)F)c3)c1)C2` [Example 4.138, (5′S,7a′R)-1-{2-[1-(difluoromethyl)-1H-pyrazol-4-yl]pyridin-4-yl}-5′-(2-fluorophenyl)tetrahydro-3′H-spiro[azetidine-3,2′-pyrrolo[2,1-b] [1,3]oxazol]-3′-one], the EC50 turned out to be 145 nM.

In the case of `N#Cc1ccc(N2CCC3(CC2)O[C@@H]2CC[C@@H](c4cccc(F)c4)N2C3=O)c(F)c1` [Example 4.53, 3-fluoro-4-[(5′S,7a′R)-5′-(3-fluorophenyl)-3′-oxotetrahydro-1H,3′H-spiro[piperidine-4,2′-pyrrolo[2,1-b] [1,3]oxazol]-1-yl]benzonitrile], the EC50 is under 25 nM.

In the case of `CC1CC2(CCN1C(=O)c1ccccc1)O[C@@H]1CC[C@@H](c3cc(F)cc(F)c3)N1C2=O` (stereo partly drawn) [Example 6.106, (4R,5′S,7a′R)-1-(benzenecarbonyl)-5′-(3,5-difluorophenyl)-2-methyltetrahydro-3′H-spiro[piperidine-4,2′-pyrrolo[2,1-b] [1,3]oxazol]-3′-one], the concentration giving a half-maximal response (EC50) is 202 nM.

As to `CCOc1cccc(C(=O)N2CCC3(CC2)O[C@@H]2CC[C@@H](c4cc(F)cc(F)c4)N2C3=O)n1` [Example 6.83, (5′S,7a′R)-5′-(3,5-difluorophenyl)-1-(6-ethoxypyridine-2-carbonyl)tetrahydro-3′H-spiro[piperidine-4,2′-pyrrolo[2,1-b] [1,3]oxazol]-3′-one], the concentration for a half-maximal effect (EC50) came out at 31.8 nM.

`O=C1N2[C@@H](CC[C@H]2c2ccccc2)OC12CCN(c1ncc(Br)c3ncnn13)CC2` [Example 4.239, (5′S,7a′R)-1-(8-bromo [1,2,4]triazolo[1,5-c]pyrimidin-5-yl)-5′-phenyltetrahydro-3′H-spiro[piperidine-4,2′-pyrrolo[2,1-b] [1,3]oxazol]-3′-one]: the EC50 is under 25 nM.

As to `CC1CN(c2cccc3ncnn23)CCC12O[C@@H]1CC[C@@H](c3cc(F)cc(F)c3)N1C2=O` (stereo partly drawn) [Example 4.265, (5′S,7a′R)-5′-(3,5-difluorophenyl)-3-methyl-1-([1,2,4]triazolo[1,5-a]pyridin-5-yl)tetrahydro-3′H-spiro[piperidine-4,2′-pyrrolo[2,1-b] [1,3]oxazol]-3′-one], the EC50 is 28.4 nM.

Take `O=C1N2[C@@H](CC[C@H]2c2cc(F)cc(F)c2)OC12CCN(c1ccc(Br)c3ccnn13)CC2` [Example 13.6, (5′S,7a′R)-1-(4-bromopyrazolo[1,5-a]pyridin-7-yl)-5′-(3,5-difluorophenyl)tetrahydro-3′H-spiro[piperidine-4,2′-pyrrolo[2,1-b]oxazol]-3′-one, TFA salt]: the EC50 is under 25 nM.

In the case of `O=C1N2[C@@H](CC[C@H]2c2cc(F)cc(F)c2)OC12CN(c1ccnc3ccnn13)C2` [Example 4.134, (5′S,7a′R)-5′-(3,5-difluorophenyl)-1-(pyrazolo[1,5-a]pyrimidin-7-yl)tetrahydro-3′H-spiro[azetidine-3,2′-pyrrolo[2,1-b] [1,3]oxazol]-3′-one], the EC50 amounted to 27.3 nM.

For the compound `COC(=O)c1cc(C)c(N2CCC3(CC2)O[C@@H]2CC[C@@H](c4ccccc4)N2C3=O)nc1C#N` [Example 4.188, methyl 2-cyano-5-methyl-6-[(5′S,7a′R)-3′-oxo-5′-phenyltetrahydro-1H,3′H-spiro[piperidine-4,2′-pyrrolo[2,1-b] [1,3]oxazol]-1-yl]pyridine-3-carboxylate], the 50% effective concentration (EC50) amounted to 540 nM.

For the compound `COc1cc(N2CCC3(CC2)O[C@@H]2CC[C@@H](c4ccccc4)N2C3=O)ncc1C#N` [Example 4.220, 4-methoxy-6-[(5′S,7a′R)-3′-oxo-5′-phenyltetrahydro-1H,3′H-spiro[piperidine-4,2′-pyrrolo[2,1-b] [1,3]oxazol]-1-yl]pyridine-3-carbonitrile], the EC50 was under 25 nM.

Turning to `N#Cc1cc(C(=O)N2CCC3(CC2)O[C@@H]2CC[C@@H](c4cc(F)cc(F)c4)N2C3=O)ccc1F` [Example 5.14, 5-((5′S,7a′R)-5′-(3,5-difluorophenyl)-3′-oxo-tetrahydro-3′H-spiro [piperidine-4,2′-pyrrolo-[2,1-b]oxazole]-1-carbon-yl)-2-fluorobenzonitrile], the EC50 was under 25 nM.

Consider `O=C(c1cscn1)N1CCC2(CC1)O[C@@H]1CC[C@@H](c3cc(F)cc(F)c3)N1C2=O` [Example 5.44], for which the concentration giving a half-maximal response (EC50) is 33.1 nM.

On to `O=C(c1cccnc1)N1CCC2(CC1)O[C@@H]1CC[C@@H](c3cc(F)cc(F)c3)N1C2=O` [Example 5.64, (5′S,7a′R)-5′-(3,5-difluoro-phenyl)-1-nicotinoyltetra-hydro-3′H-spiro[piperidine-4,2′-pyrrolo[2,1-b]oxazol]-3′-one], for which the EC50 was 38.8 nM.

Consider `O=C1N2[C@@H](CC[C@H]2c2cc(F)cc(F)c2)OC12CCN(c1cccc3nccn13)CC2` [Example 13.5, (5′S,7a′R)-5′-(3,5-difluorophenyl)-1-(imidazo[1,2-a]pyridin-5-yl)tetrahydro-3′H-spiro[piperidine-4,2′-pyrrolo[2,1-b]oxazol]-3′-one, TFA salt], for which the EC50 came out at 98.4 nM.

In the case of `N#Cc1cnc(N2CCC3(CC2)O[C@@H]2CC[C@@H](c4ccccc4)N2C3=O)cc1OC(F)F` [Example 4.206, 4-(difluoromethoxy)-6-[(5′S,7a′R)-3′-oxo-5′-phenyltetrahydro-1H,3′H-spiro[piperidine-4,2′-pyrrolo[2,1-b] [1,3]oxazol]-1-yl]pyridine-3-carbonitrile], the EC50 was under 25 nM.

On to `O=C(c1cc(F)ccc1F)N1CCC2(CC1)O[C@@H]1CC[C@@H](c3cccc(F)c3)N1C2=O` [Example 1.6, (5′S,7a′R)-1-(2,5-difluorobenzene-1-carbonyl)-5′-(3-fluorophenyl)tetrahydro-3′H-spiro[piperidine-4,2′-pyrrolo[2,1-b] [1,3]oxazol]-3′-one], for which the EC50 was under 25 nM.

With `CC1CC2(CCN1C(=O)c1ncccc1F)O[C@@H]1CC[C@@H](c3cccc(F)c3)N1C2=O` (stereo partly drawn) [Example 6.162, (4R,5′S,7a′R)-5′-(3-fluorophenyl)-1-(3-fluoropyridine-2-carbonyl)-2-methyl-tetrahydro-3′H-spiro [piperidine-4,2′-pyrrolo[2,1-b][1,3]oxazol]-3′-one], the EC50 is 38 nM.

Take `Cc1ncc([C@@H]2CC[C@H]3OC4(CCN(c5ccnc6ccnn56)CC4)C(=O)N32)cc1F` [Example 4.89, (5′S,7a′R)-5′-(5-fluoro-6-methylpyridin-3-yl)-1-(pyrazolo[1,5-a]pyrimidin-7-yl)tetrahydro-3′H-spiro[piperidine-4,2′-pyrrolo[2,1-b]oxazol]-3′-one]: the half-maximal effective concentration (EC50) stood at 29.4 nM.

Take `CC1CC2(CCN1C(=O)c1ncccc1F)O[C@@H]1CC[C@@H](c3cccc(F)c3)N1C2=O` (stereo partly drawn) [Example 6.159, (4R,5′S,7a′R)-5′-(3-fluorophenyl)-1-(3-fluoropyridine-2-carbonyl)-2-methyl-tetrahydro-3′H-spiro [piperidine-4,2′-pyrrolo[2,1-b][1,3]oxazol]-3′-one]: the EC50 amounted to 826 nM.

In the case of `O=C1N2[C@@H](CC[C@H]2c2ccccc2)OC12CCN(c1cc(F)c(O)cn1)CC2` [Example 4.209, (5′S,7a′R)-1-(4-fluoro-5-hydroxypyridin-2-yl)-5′-phenyltetrahydro-3′H-spiro[piperidine-4,2′-pyrrolo[2,1-b] [1,3]oxazol]-3′-one], the half-maximal effective concentration (EC50) was found to be 166 nM.

For `O=C(c1cc(F)ccc1F)N1CCC2(CC1)O[C@@H]1CC[C@@H](c3cc(F)cc(F)c3)N1C2=O` [Example 5.1, (5′S,7a′R)-1-(2,5-Difluorobenzoyl)-5′-(3,5-difluorophenyl)tetrahydro-3′H-spiro[piperidine-4,2′-pyrrolo[2,1-b]oxazol]-3′-one], the concentration for a half-maximal effect (EC50) is under 25 nM.

As to `CSc1nc(C)cc(N2CCC3(CC2)O[C@@H]2CC[C@@H](c4ccccc4)N2C3=O)n1` [Example 4.36, (5′S,7a′R)-1-[6-methyl-2-(methylsulfanyl)pyrimidin-4-yl]-5′-phenyltetrahydro-3′H-spiro[piperidine-4,2′-pyrrolo[2,1-b] [1,3]oxazol]-3′-one], the EC50 amounted to 37.4 nM.

Take `N#Cc1cc(N2CCC3(CC2)SC2CCC(c4cc(F)cc(F)c4)N2C3=O)ncn1` (stereo not drawn) [Example 4.111, 6-(5′-(3,5-difluorophenyl)-3′-oxotetrahydro-3′H-spiro[piperidine-4,2′-pyrrolo[2,1-b]thiazol]-1-yl)pyrimidine-4-carbonitrile]: the EC50 amounted to 38.1 nM.
